By IC50 is commonly meant the point on the concentration scale where inhibition reaches its midpoint. The term AC50 denotes the concentration at which the activity in the assay is half-maximal. As usually defined, the Ki is a dissociation constant, usually derived from enzyme kinetics or from competition with a known ligand. Broadly, the EC50 is the concentration that produces a half-maximal response. For orientation: pKi means the Ki on a negative log10 scale, so that one unit is a factor of ten. A high value points to a small Ki.

The record followed here is ChEMBL document CHEMBL1201862, “PubChem BioAssay data set” (2004).

The target in assay [1] is DNA dC->dU-editing enzyme APOBEC-3G (Homo sapiens, UniProt Q9HC16). Kind of assay: Dose Response confirmation of small molecule APOBEC3G DNA Deaminase Inhibitors via a fluorescence-based single-stranded DNA deaminase assay. [Related pubchem assays (depositor defined):AID493012, AID493028]. Type of assay: functional.
In assay [2] the target is Intestinal-type alkaline phosphatase (Mus musculus, UniProt P24822). Kind of assay: PubChem AID 488785. Type of assay: functional.
The subject of a further assay is INS1. Kind of assay: beta cell apoptosis inhibitors, cytokine rescue, dose response, luminescence, retest (AID 449756).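 Also: cell death triggered by IL-1 beta plus TNF-alpha plus IFN-gamma mixture; protective hits raise ATP signal compared with cytokine alone wells.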 Type of assay: functional, cell-based. The note with it: Rattus norvegicus.
For assay [3], the target named is Runt-related transcription factor 1/Core-binding factor subunit beta (Homo sapiens, UniProt Q01196+Q13951). Kind of assay: inhibitors of RUNX1 Runt–CBFb-SMMHC binding, biochemical, TR-FRET (AID 1438). Type of assay: protein assay. In general terms: In TR-FRET formats the signal depends on donor and acceptor labels being close together.
For assay [4], the target named is Voltage-gated N-type calcium channel alpha-1B subunit/Amyloid beta A4 precursor protein-binding family A member 1 (Homo sapiens, UniProt Q00975+Q02410). The format is protein assay.
The target of assay [5] is Glyceraldehyde-3-phosphate dehydrogenase (Homo sapiens, UniProt P04406).
Assay [6] concerns the target T1, Tyrosine-protein phosphatase non-receptor type 7 (Homo sapiens, UniProt P35236).
T1 sequence (P35236 whole entry): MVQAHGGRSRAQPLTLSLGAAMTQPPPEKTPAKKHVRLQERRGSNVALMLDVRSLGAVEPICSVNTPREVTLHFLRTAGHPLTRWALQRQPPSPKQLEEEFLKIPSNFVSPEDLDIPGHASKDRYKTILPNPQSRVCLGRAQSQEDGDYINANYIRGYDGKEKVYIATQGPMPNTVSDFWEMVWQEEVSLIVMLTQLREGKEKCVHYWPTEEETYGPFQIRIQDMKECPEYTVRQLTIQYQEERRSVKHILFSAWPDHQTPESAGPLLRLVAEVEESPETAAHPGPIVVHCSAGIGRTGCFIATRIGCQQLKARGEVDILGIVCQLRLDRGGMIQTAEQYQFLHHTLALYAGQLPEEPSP
The format is functional.

Assay [7] addresses 5'-AMP-activated protein kinase catalytic subunit alpha-1 (Homo sapiens, UniProt Q13131). Type of assay: functional.
The target of assay [8] is Calcium/calmodulin-dependent protein kinase type II subunit alpha (Homo sapiens, UniProt Q9UQM7). Put plainly: Navigating the Kinome. Panel member name: CAMK2A. The format is functional.
Assay [9] deals with Insulin-like growth factor 1 receptor (Homo sapiens, UniProt P08069). Kind of assay: Navigating the Kinome. Panel member name: IGF1R. The format is functional.
Assay [10] has as its target Hepatocyte growth factor receptor (Homo sapiens, UniProt P08581). The format is functional.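 Also: kinase panel profiling across the kinome, with MET as the panel member.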
Assay [11] has as its target C-C chemokine receptor type 6 (Homo sapiens, UniProt P51684). Put plainly: CCR6 receptor antagonists, dose response, cell-based, luminescent beta-arrestin readout (AID 504728). The format is functional.
Assay [12] relates to BJ. Put plainly: cytotoxicity toward BJ-TERT-LT-ST fibroblasts, dose response, cell-based, RAS-independent, luminescence (AID 1935).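 Also: BJ fibroblasts immortalized with TERT plus LT and ST oncogenes.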 The note with it: Homo sapiens. The format is functional.
In assay [13] the test system is BJ. Put plainly: cells. The note with it: Homo sapiens. Type of assay: functional, cell-based.
A further assay addresses T2, Aminopeptidase N (Plasmodium falciparum FcB1/Columbia, UniProt O96935).
T2 sequence (O96935 whole entry): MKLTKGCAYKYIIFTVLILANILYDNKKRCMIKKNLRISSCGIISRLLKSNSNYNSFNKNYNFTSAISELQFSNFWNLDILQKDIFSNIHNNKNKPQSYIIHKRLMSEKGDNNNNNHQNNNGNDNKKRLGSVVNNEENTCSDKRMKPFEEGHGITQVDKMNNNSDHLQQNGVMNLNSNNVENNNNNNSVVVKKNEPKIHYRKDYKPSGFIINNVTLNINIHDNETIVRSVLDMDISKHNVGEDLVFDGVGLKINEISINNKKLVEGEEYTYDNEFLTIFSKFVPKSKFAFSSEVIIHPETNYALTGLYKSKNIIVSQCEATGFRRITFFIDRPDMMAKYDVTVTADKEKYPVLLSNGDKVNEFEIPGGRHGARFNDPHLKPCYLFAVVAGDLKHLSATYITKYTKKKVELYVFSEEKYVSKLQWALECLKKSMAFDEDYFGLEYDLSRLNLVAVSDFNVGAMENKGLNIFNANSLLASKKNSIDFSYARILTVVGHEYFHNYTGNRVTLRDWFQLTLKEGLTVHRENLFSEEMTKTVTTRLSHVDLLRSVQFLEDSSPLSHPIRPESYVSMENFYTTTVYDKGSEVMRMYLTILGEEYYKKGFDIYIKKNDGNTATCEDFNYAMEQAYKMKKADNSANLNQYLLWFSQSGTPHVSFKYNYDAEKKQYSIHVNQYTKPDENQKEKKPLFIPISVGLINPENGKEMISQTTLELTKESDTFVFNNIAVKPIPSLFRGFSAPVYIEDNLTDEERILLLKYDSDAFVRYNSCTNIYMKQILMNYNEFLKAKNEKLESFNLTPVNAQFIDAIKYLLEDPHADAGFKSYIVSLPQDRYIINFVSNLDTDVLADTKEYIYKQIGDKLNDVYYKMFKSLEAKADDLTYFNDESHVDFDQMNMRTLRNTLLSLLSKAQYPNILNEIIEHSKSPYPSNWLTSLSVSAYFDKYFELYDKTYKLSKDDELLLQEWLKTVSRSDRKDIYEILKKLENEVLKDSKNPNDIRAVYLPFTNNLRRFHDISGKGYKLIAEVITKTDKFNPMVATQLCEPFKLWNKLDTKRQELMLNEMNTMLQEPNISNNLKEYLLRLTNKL
Kind of assay: P. falciparum M1AAP inhibitors, biochemical, fluorogenic H-Leu-NHMec substrate, 1536-well (AID 1445). The arrangement: species or system Plasmodium falciparum 3D7, 3D7.

Assay [14] concerns the target Tyrosine-protein kinase Lyn (Homo sapiens, UniProt P07948). Type of assay: functional.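 Also: lyn as one member of a kinase panel.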
The target in assay [15] is Calcium/calmodulin-dependent protein kinase type 1 (Homo sapiens, UniProt Q14012). Type of assay: functional.
The target in assay [16] is Inhibitor of nuclear factor kappa-B kinase subunit beta (Homo sapiens, UniProt O14920). The format is functional.
The target in assay [17] is Tyrosine-protein kinase Blk (Homo sapiens, UniProt P51451). The format is functional.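 Also: obtained as one member of a kinome-wide kinase assay panel.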
The target of assay [18] is Rho-associated protein kinase 2 (Homo sapiens, UniProt O75116). The format is functional.

Each structure is given as a SMILES string. Calls of active or inactive are those of the source. Some results are limits rather than exact numbers.

Sequence of Hepatocyte growth factor receptor (P08581 whole entry): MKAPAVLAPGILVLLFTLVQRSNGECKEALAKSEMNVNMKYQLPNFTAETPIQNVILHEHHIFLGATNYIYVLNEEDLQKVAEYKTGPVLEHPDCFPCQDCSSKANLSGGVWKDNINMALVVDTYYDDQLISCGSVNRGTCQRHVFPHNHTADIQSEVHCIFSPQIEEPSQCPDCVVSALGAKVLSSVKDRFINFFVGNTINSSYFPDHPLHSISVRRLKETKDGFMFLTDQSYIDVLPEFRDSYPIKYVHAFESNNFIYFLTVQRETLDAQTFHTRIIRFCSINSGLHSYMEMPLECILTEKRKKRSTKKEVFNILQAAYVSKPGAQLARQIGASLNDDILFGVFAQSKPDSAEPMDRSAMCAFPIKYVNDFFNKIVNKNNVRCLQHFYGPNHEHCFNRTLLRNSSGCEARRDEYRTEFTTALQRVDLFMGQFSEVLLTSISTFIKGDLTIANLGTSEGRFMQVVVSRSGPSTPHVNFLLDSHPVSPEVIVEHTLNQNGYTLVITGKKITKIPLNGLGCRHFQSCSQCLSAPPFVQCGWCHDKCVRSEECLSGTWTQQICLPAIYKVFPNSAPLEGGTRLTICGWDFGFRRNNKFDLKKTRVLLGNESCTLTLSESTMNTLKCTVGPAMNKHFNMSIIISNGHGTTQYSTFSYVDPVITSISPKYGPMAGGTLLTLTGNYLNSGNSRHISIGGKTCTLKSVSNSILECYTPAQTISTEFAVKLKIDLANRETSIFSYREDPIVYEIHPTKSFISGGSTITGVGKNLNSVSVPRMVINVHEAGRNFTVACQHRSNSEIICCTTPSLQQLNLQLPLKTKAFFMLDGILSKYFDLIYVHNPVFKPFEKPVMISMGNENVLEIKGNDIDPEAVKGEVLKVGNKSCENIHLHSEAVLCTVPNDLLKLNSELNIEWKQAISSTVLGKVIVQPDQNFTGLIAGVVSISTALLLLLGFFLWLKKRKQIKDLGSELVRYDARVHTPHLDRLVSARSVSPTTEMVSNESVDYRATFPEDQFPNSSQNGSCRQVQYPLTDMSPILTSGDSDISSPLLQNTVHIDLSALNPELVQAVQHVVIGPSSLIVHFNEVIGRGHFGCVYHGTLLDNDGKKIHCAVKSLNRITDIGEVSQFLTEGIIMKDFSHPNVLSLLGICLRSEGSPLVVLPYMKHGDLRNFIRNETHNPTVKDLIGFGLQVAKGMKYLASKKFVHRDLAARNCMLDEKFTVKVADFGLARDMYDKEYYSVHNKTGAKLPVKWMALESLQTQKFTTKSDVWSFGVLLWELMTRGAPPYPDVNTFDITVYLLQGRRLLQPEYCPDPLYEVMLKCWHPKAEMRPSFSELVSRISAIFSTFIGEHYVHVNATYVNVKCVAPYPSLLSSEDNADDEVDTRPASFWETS
Sequence of Insulin-like growth factor 1 receptor (P08069 31-736 limits assumed): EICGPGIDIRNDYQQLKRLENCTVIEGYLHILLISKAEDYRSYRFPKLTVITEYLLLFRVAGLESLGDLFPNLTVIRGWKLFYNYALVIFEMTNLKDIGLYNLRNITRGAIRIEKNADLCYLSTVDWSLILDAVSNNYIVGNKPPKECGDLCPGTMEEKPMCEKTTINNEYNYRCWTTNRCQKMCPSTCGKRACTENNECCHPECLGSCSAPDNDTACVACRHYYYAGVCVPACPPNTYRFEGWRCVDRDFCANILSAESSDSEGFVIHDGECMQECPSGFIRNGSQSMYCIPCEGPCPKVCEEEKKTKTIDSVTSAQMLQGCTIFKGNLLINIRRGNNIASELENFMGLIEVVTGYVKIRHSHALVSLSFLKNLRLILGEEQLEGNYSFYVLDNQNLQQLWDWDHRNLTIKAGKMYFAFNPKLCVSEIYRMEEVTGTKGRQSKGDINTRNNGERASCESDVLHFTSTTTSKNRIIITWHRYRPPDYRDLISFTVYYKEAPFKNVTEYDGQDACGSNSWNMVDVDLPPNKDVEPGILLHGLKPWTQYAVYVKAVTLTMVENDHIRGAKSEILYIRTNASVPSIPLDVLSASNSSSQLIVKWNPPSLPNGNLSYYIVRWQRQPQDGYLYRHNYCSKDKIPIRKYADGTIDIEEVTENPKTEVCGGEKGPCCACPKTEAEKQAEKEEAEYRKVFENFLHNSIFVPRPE
Sequence of Insulin-like growth factor 1 receptor (P08069 741-1367 limits assumed): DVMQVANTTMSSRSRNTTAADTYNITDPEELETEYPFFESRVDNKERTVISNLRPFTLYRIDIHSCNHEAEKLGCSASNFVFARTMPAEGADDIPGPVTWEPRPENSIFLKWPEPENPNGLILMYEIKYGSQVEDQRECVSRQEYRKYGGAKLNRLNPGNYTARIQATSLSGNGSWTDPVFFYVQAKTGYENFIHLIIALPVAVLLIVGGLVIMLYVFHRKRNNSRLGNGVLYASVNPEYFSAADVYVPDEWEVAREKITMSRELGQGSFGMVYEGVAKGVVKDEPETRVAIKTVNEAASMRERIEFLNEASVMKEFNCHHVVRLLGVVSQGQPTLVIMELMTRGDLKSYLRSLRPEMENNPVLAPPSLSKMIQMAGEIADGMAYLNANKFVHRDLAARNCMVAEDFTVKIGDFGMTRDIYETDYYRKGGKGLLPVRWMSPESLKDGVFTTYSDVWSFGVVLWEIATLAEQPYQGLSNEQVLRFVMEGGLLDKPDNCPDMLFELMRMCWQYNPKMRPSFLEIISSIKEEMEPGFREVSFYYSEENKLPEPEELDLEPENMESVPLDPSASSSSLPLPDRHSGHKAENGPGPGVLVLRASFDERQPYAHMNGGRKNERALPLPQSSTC
Sequence of DNA dC->dU-editing enzyme APOBEC-3G (Q9HC16 whole entry): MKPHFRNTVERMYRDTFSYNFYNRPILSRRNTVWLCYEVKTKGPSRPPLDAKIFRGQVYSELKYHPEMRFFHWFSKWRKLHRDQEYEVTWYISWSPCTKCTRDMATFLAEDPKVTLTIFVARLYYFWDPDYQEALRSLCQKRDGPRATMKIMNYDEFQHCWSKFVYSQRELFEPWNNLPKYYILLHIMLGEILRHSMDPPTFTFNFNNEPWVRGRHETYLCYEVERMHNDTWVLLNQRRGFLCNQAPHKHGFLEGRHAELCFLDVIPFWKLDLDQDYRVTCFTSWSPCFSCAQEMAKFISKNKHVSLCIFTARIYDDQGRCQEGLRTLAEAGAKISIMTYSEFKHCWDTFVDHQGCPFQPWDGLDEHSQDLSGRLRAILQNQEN
Sequence of Glyceraldehyde-3-phosphate dehydrogenase (P04406 whole entry): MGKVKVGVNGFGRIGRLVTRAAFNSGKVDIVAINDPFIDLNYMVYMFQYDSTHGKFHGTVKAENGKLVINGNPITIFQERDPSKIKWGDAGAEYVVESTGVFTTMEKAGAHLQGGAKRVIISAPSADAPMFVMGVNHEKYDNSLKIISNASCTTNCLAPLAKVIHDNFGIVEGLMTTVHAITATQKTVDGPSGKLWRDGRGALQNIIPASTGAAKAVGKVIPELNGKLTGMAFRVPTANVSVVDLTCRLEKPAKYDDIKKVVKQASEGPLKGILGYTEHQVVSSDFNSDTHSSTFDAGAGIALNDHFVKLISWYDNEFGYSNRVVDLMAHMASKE
Sequence of Tyrosine-protein kinase Lyn (P07948 whole entry): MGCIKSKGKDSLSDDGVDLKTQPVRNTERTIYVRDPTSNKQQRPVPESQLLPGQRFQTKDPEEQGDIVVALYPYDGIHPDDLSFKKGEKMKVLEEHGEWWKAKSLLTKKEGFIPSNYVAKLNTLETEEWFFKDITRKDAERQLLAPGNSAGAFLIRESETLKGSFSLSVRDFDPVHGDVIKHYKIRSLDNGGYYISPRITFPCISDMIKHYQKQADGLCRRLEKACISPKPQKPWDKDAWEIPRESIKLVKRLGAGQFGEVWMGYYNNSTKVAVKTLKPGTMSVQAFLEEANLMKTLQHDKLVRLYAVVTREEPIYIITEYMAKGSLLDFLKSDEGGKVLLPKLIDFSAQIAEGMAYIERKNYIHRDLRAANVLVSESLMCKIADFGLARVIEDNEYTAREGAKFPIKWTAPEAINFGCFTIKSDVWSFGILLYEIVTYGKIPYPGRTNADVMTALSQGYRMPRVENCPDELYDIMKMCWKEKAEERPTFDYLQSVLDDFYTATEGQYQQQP
Sequence of Tyrosine-protein kinase Blk (P51451 whole entry): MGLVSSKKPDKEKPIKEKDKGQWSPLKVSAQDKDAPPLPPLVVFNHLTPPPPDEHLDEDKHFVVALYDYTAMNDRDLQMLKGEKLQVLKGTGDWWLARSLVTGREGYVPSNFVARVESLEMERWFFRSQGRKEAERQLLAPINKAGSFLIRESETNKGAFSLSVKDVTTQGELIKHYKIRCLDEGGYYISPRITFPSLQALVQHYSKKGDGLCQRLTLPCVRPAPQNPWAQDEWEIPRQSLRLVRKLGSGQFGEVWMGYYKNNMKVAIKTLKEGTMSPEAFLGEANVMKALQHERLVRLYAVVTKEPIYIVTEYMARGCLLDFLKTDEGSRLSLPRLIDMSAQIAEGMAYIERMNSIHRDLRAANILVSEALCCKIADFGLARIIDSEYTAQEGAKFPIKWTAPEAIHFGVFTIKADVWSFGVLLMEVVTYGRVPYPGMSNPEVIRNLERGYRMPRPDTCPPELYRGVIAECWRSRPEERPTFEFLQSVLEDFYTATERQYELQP
Sequence of 5'-AMP-activated protein kinase catalytic subunit alpha-1 (Q13131 whole entry): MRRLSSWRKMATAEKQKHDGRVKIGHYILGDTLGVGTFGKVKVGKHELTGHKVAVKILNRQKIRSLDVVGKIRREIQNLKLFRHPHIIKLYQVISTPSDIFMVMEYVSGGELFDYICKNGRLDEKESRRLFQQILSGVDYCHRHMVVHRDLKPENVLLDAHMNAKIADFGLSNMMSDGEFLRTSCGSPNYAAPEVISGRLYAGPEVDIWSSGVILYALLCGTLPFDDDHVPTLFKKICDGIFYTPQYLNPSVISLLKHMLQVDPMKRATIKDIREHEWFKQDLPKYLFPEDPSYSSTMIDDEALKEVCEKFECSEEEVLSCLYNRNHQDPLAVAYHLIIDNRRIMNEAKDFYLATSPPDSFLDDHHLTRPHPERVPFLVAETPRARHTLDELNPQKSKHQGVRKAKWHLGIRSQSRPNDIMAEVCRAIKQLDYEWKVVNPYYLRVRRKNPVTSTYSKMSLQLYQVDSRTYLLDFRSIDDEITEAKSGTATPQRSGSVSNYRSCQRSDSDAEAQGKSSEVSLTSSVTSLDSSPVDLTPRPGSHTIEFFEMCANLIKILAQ

Turning to `O=C1/C(=C\c2cccc(O)c2O)SC(=S)N1Cc1ccccc1`, the half-maximal inhibitory concentration (IC50) in assay [1] was 47.2 µM (active); in assay [2], 3.23 µM (active).
As for `CC(C)(C)c1cc[n+](C2=C([N-]S(=O)(=O)c3cccs3)C(=O)c3ccccc3C2=O)cc1`, the AC50 in the assay with INS1 was 2.04 µM (active).
Take `COc1cccc2c1NC(C(=O)O)C1CC=CC21` (stereo not drawn): the 50% inhibitory concentration (IC50) in [3] is 15.4 µM (active); in assay [4] it was 4.46 µM (active); in [5] it was 88.9 µM (active); in [6], 11.3 µM (active).
On to `COc1c(-c2nc3ccccc3[nH]2)c(O)cc2oc(C)cc(=O)c12`, for which the Ki was 0.794 µM (active) in assay [7], 1 µM (active) in assay [8], > 2.51 µM (inactive) in [9] and 0.126 µM (active) in [10].
Take `COC(=O)c1c(N)nc2ccccn12`: in [10], the Ki is 79.4 µM (active).
For `CCc1ccc(S(=O)(=O)/N=C2\C=C(Nc3ccc(O)cc3)C(=O)c3ccccc32)cc1`, the AC50 in the assay with INS1 is 0.981 µM (active). Besides, the IC50 in [11] was > 66.6 µM (inactive). In addition, the figures for the concentration giving a half-maximal response (EC50) with BJ [12] and in the assay with BJ [13] were 2.83 µM (active) and 2.96 µM (active), respectively.
Consider `Cc1cc([N+](=O)[O-])cc(/C=N\NC(=O)C2COc3ccccc3O2)c1O` (stereo not drawn), for which the IC50 at Aminopeptidase N was 3.05 µM (active).
Turning to `Cc1ccc(F)c(NC(=O)Nc2ccc(-c3cccc4[nH]nc(N)c34)cc2)c1` [LINIFANIB], the Ki in assay [14] was 0.251 µM (active); in assay [15] it was 6.31 µM (active); in assay [16], > 3.16 µM (inactive); in [17] it was 0.316 µM (active); in [9], > 2.51 µM (inactive). For the same molecule, the pKi in assay [18] is listed as 5.6.
